Test results: ChEMBL document CHEMBL3228014, “Preparation of the enantiomeric forms of 9-(5-deoxy-alpha-threo-pent-4-enofuranosyl)adenine and 9-(3,5-dideoxy-beta-D-glycero-pent-4-enofuranosyl)adenine and in vitro antileukemic screening” (1979)
The source made the active and inactive calls. The calls are words filed in the database; no cut-off is given here.

Test system: L1210
Assay: Antiproliferative activity against mouse L1210 cells assessed as growth inhibition at 50 uM
Type: functional

Structure (SMILES)	inhibition	inhibition at 50 µM
C=C1O[C@@H](n2cnc3c(N)ncnc32)[C@H](O)[C@H]1O	inactive	
C=C1O[C@H](n2cnc3c(N)ncnc32)[C@H](O)[C@H]1O	inactive	
C=C1C[C@@H](O)[C@H](n2cnc3c(N)ncnc32)O1		50%
C=C1O[C@@H](n2cnc3c(N)ncnc32)CC1O (single isomer, unassigned)	inactive	
C=C1O[C@H](n2cnc3c(N)ncnc32)[C@@H](O)[C@@H]1O	inactive	
